{
  "source": "patent US4044150A",
  "about": "“Antihypertensive 4'-[1-hydroxy-2-[(1-phenoxy ethyl)-amino]ethyl]methanesulfonanilide and salts thereof and therapeutic use” (Mead Johnson & Company, priority 1976, dated 1977)",
  "key": {"[1]": {"experiment": "acute toxicity in rats (oral LD50)", "settings": "rat, in vivo, hydrochloride"}, "[2]": {"experiment": "acute toxicity in mice (LD50)", "settings": "mouse, in vivo, hydrochloride"}, "[3]": {"test_system": "Anesthetized Dog Challenged with Isoproterenol", "experiment": "inherent cardiac and blood pressure effects in the isoproterenol challenged intact anesthetized dog", "format": "in vivo", "settings": "for Absolute Change From Control in Contractile Force (CF) / Absolute Change From Control in Heart Rate (HR) / Absolute Change From Control in Mean Arterial Blood Pressure (MABP): decrease", "method": "One such test involves the measurement of inherent cardiac and blood pressure effects in the isoproterenol challenged intact anesthetized dog. In this test model, dogs are anesthetized with a mixture of phenobarbital sodium (15 mg./kg.) and barbital sodium (225 mg./kg.) intravenously and are vagotomized bilaterally. Heart rate, contractile force and diastolic blood pressure are continuously recorded with alterations in these responses (e.g. tachycardia) produced by intravenously administered isoproterenol determined before and after injection of increasing doses of the test compound. The test substance is administered to separate groups of dogs at cumulative doses of 0.1, 0.3, 1, 3, and 10 mg./kg. body weight with each dose of the test substance infused slowly over a period of 3-5 minutes. After completing infusion of the test substance, a 10 -minute equilibrium period is allowed for drug-receptor interaction and stabilization of the cardiovascular system before a series of isoproterenol challenges is initiated. Maximum response to isoproterenol is achieved after each dose of the beta-adrenergic blocking agent by logarithmically increasing the dose of this agonist as receptor blockade develops. Each dose of isoproterenol is given approximately 5 minutes after the previous one and the overall dose range for isoproterenol is from 0.03-300 micrograms per kilogram body weight. Mean changes in the resting levels of the cardiovascular variables (heart rate, contractile force, and mean arterial blood pressure) due to the administration of each agent (which is taken as a measure of the inherent drug effect) is determined and statistically compared using the Student's test."}, "[4]": {"test_system": "Spontaneous Hypertensive Rat", "experiment": "lowering of blood pressure and heart rate in the spontaneously hypertensive rat (SHR)", "format": "in vivo", "settings": "for ED (40 mm Hg) / ED (10%): Rattus norvegicus, 4 h; for ED (40 mm Hg): read-out: Dose which lowers blood pressure by 40 mm Hg; for ED (10%): read-out: Dose which lowers heart rate by 10%; for reduction of heart rate / reduction of systolic blood pressure: doses of 50-200 mg./kg., 4 hours (FIG. 1, FIG. 2)", "method": "FIG. 1 constitutes a dose-response graph of blood pressure and heart rate changes determined in the spontaneous hypertensive rat 4 hours after orally administered 4'-[1-hydroxy-2-[(1 -phenoxyethyl)amino]ethyl]methanesulfonanilide (Compound A). Blood pressure changes at doses of 50, 100, and 200 mg./kg. body weight are given in millimeters of mercury and are represented by circles (-0 -) with percent change in heart rate represented by squares (- -).\nFIG. 2 constitutes a dose-response graph of blood pressure and heart rate changes similar to that of FIG. 1 for 4-[2-( 1-phenoxy-2-propylamino)-1-hydroxyethyl]methanesulfonanilide (Compound B).\nAnother in vivo animal experiment considered predictive of antihypertensive utility by those skilled in the art is the lowering of blood pressure in an inbred strain of spontaneously hypertensive rat (SHR) established by Okamoto and Aoki. In this test, systolic blood pressure and heart rate determinations are made immediately before the animals are orally dosed to provide control values and subsequently thereafter at 4 and 24-hour periods to determine drug effect. Various doses of test drug are administered and a dose-response graph obtained by plotting (on semi-log paper) the observed change (mm Hg) in systolic blood pressure and percent change in heart rate as […]. […] Values set forth in Table II below are taken from FIGS. 1 and 2."}, "mammals": {"test_system": "mammals", "experiment": "general statement on heart rate at effective antihypertensive doses", "format": "in vivo", "settings": "for change in heart rate: at effective antihypertensive or hypotensive doses"}, "beta-receptor": {"test_system": "beta-receptor", "settings": "isolated guinea pig tracheal spiral; Uloth et al., J. Med. Chem. 9, 88-97 (1966); cited from earlier work"}, "[5]": {"settings": "0.3 mg/kg i.v., + = increase from control (footnote c)"}},
  "note": "Entries after “also recorded” stand apart in the source; their conditions may differ.",
  "data": [
    {"smiles": "CS(=O)(=O)Nc1ccc(C(O)CNCCOc2ccccc2)cc1.Cl", "note": "(stereo not drawn) [4'-[1-Hydroxy-2-[(2-phenoxyethyl)amino]ethyl]methanesulfonanilide Hydrochloride]", "values": [
      {"measurement": "LD50", "setting": "[1]; female rat", "value": 1950, "unit": "mg/kg"},
      {"measurement": "LD50", "setting": "[1]; male rat", "value": 3550, "unit": "mg/kg"},
      {"measurement": "LD50", "setting": "[2]; ip, intraperitoneal, read-out: intraperitoneal LD50", "value": 273, "unit": "mg/kg"},
      {"measurement": "LD50", "setting": "[2]; oral, read-out: oral LD50", "value": 1920, "unit": "mg/kg"}
    ]},
    {"smiles": "CS(=O)(=O)Nc1ccc(C(O)CNCCOc2ccccc2)cc1", "note": "(stereo not drawn) [Compound A, 4'-[1-hydroxy-2-[(2-phenoxyethyl)amino]ethyl]methanesulfonanilide]", "values": [
      {"measurement": "Absolute Change From Control in Contractile Force (CF)", "setting": "[3]; 0.1 mg/kg i.v.", "value": "9 ± 6", "unit": "gm"},
      {"measurement": "Absolute Change From Control in Heart Rate (HR)", "setting": "[3]; 0.1 mg/kg i.v.", "value": "18 ± 4", "unit": "bpm"},
      {"measurement": "Absolute Change From Control in Mean Arterial Blood Pressure (MABP)", "setting": "[3]; 0.1 mg/kg i.v.", "value": "11 ± 1", "unit": "mm Hg"},
      {"measurement": "Absolute Change From Control in Contractile Force (CF)", "setting": "[3]; 0.3 mg/kg i.v.", "value": "8 ± 6", "unit": "gm"},
      {"measurement": "Absolute Change From Control in Heart Rate (HR)", "setting": "[3]; 0.3 mg/kg i.v.", "value": "22 ± 4", "unit": "bpm"},
      {"measurement": "Absolute Change From Control in Mean Arterial Blood Pressure (MABP)", "setting": "[3]; [5]", "value": "17 ± 3", "unit": "mm Hg"},
      {"measurement": "Absolute Change From Control in Contractile Force (CF)", "setting": "[3]; 1.0 mg/kg i.v.", "value": "11 ± 5", "unit": "gm"},
      {"measurement": "Absolute Change From Control in Heart Rate (HR)", "setting": "[3]; 1.0 mg/kg i.v.", "value": "32 ± 5", "unit": "bpm"},
      {"measurement": "Absolute Change From Control in Mean Arterial Blood Pressure (MABP)", "setting": "[3]; 1.0 mg/kg i.v.", "value": "12 ± 3", "unit": "mm Hg"},
      {"measurement": "Absolute Change From Control in Contractile Force (CF)", "setting": "[3]; 3.0 mg/kg i.v.", "value": "11 ± 5", "unit": "gm"},
      {"measurement": "Absolute Change From Control in Heart Rate (HR)", "setting": "[3]; 3.0 mg/kg i.v.", "value": "38 ± 6", "unit": "bpm"},
      {"measurement": "Absolute Change From Control in Mean Arterial Blood Pressure (MABP)", "setting": "[3]; 3.0 mg/kg i.v.", "value": "16 ± 4", "unit": "mm Hg"},
      {"measurement": "Absolute Change From Control in Contractile Force (CF)", "setting": "[3]; 10.0 mg/kg i.v.", "value": "17 ± 7", "unit": "gm"},
      {"measurement": "Absolute Change From Control in Heart Rate (HR)", "setting": "[3]; 10.0 mg/kg i.v.", "value": "38 ± 6", "unit": "bpm"},
      {"measurement": "Absolute Change From Control in Mean Arterial Blood Pressure (MABP)", "setting": "[3]; 10.0 mg/kg i.v.", "value": "34 ± 7", "unit": "mm Hg"},
      {"measurement": "reduction in heart rate", "setting": "[3]; dose of 0.1 mg./kg.", "value": 12, "unit": "%"},
      {"measurement": "effect on mean arterial blood pressure", "setting": "[3]; doses of 0.3 to 1.0 mg./kg.", "value": "effectively reduces mean arterial blood pressure"},
      {"measurement": "ED (40 mm Hg)", "setting": "[4]; oral, taken from FIGS. 1 and 2", "value": 165, "unit": "mg/kg"},
      {"measurement": "ED (10%)", "setting": "[4]; oral, taken from FIGS. 1 and 2", "value": 150, "unit": "mg/kg"},
      {"measurement": "bradycardia liability relative to Compound B", "setting": "[4]; at doses sufficient to reduce blood pressure by 40 mm Hg", "value": "about 50%"},
      {"measurement": "reduction of heart rate", "setting": "[4]; oral", "value": "2-12%"},
      {"measurement": "reduction of systolic blood pressure", "setting": "[4]; oral", "value": "22-43 mm Hg"},
      {"measurement": "Percent decrease in blood pressure at dose lowering heart rate by 10%", "setting": "[4]; oral, taken from FIGS. 1 and 2", "value": 38, "unit": "%"},
      {"measurement": "Percent decrease in heart rate at dose lowering blood pressure by 40 mm Hg", "setting": "[4]; oral, taken from FIGS. 1 and 2", "value": 11, "unit": "%"},
      {"measurement": "change in heart rate", "setting": "mammals", "value": "little or no effect on heart rate"},
      {"measurement": "change in heart rate", "setting": "mammals; listed as compound of the instant invention", "value": "little or no significant change in heart rate"},
      {"measurement": "effect on blood pressure", "setting": "mammals; effective dose", "value": "reduces blood pressure"}
    ]},
    {"smiles": "CC(COc1ccccc1)NCC(O)c1ccc(NS(C)(=O)=O)cc1", "note": "(stereo not drawn) [Compound B, 4-[2-(1-phenoxy-2-propylamino)-1-hydroxyethyl]methanesulfonanilide, reference compound]", "values": [
      {"measurement": "Absolute Change From Control in Contractile Force (CF)", "setting": "[3]; 0.3 mg/kg i.v.", "value": "6 ± 7", "unit": "gm"},
      {"measurement": "Absolute Change From Control in Heart Rate (HR)", "setting": "[3]; 0.3 mg/kg i.v.", "value": 29, "unit": "bpm"},
      {"measurement": "Absolute Change From Control in Mean Arterial Blood Pressure (MABP)", "setting": "[3]; [5]", "value": "+1 ± 5 mm Hg"},
      {"measurement": "Absolute Change From Control in Contractile Force (CF)", "setting": "[3]; 1.0 mg/kg i.v.", "value": "4 ± 7", "unit": "gm"},
      {"measurement": "Absolute Change From Control in Heart Rate (HR)", "setting": "[3]; 1.0 mg/kg i.v.", "value": "39 ± 7", "unit": "bpm"},
      {"measurement": "Absolute Change From Control in Mean Arterial Blood Pressure (MABP)", "setting": "[3]; 1.0 mg/kg i.v.", "value": "2 ± 6", "unit": "mm Hg"},
      {"measurement": "Absolute Change From Control in Contractile Force (CF)", "setting": "[3]; 3.0 mg/kg i.v.", "value": "4 ± 7", "unit": "gm"},
      {"measurement": "Absolute Change From Control in Heart Rate (HR)", "setting": "[3]; 3.0 mg/kg i.v.", "value": "54 ± 7", "unit": "bpm"},
      {"measurement": "Absolute Change From Control in Mean Arterial Blood Pressure (MABP)", "setting": "[3]; 3.0 mg/kg i.v.", "value": "10 ± 8", "unit": "mm Hg"},
      {"measurement": "Absolute Change From Control in Contractile Force (CF)", "setting": "[3]; 10.0 mg/kg i.v.", "value": "6 ± 9", "unit": "gm"},
      {"measurement": "Absolute Change From Control in Heart Rate (HR)", "setting": "[3]; 10.0 mg/kg i.v.", "value": "72 ± 9", "unit": "bpm"},
      {"measurement": "Absolute Change From Control in Mean Arterial Blood Pressure (MABP)", "setting": "[3]; 10.0 mg/kg i.v.", "value": "28 ± 14", "unit": "mm Hg"},
      {"measurement": "reduction in heart rate", "setting": "[3]; dose of 3 mg./kg.", "value": 33, "unit": "%"},
      {"measurement": "effect on heart rate (bradycardia)", "setting": "[3]; doses of 0.3 to 1.0 mg./kg.", "value": "pronounced bradycardia"},
      {"measurement": "effect on mean arterial blood pressure", "setting": "[3]; doses of 0.3 to 1.0 mg./kg.", "value": "no significant effect"},
      {"measurement": "ED (40 mm Hg)", "setting": "[4]; oral, taken from FIGS. 1 and 2", "value": 100, "unit": "mg/kg"},
      {"measurement": "ED (10%)", "setting": "[4]; oral, taken from FIGS. 1 and 2", "value": 18, "unit": "mg/kg"},
      {"measurement": "reduction of heart rate", "setting": "[4]; oral", "value": "17-25%"},
      {"measurement": "reduction of systolic blood pressure", "setting": "[4]; oral", "value": "18-64 mm Hg"},
      {"measurement": "Percent decrease in heart rate at dose lowering blood pressure by 40 mm Hg", "setting": "[4]; oral, taken from FIGS. 1 and 2", "value": 21, "unit": "%"},
      {"measurement": "decrease in blood pressure at dose lowering heart rate by 10% (in words)", "setting": "[4]; oral, taken from FIGS. 1 and 2", "value": "no significant; also recorded: no effect on blood pressure"},
      {"measurement": "change in heart rate", "setting": "mammals", "value": "substantial decrease in heart rate"},
      {"measurement": "beta-receptor blocking activity relative to dichloroisoproterenol", "setting": "beta-receptor", "value": "four times the activity of dichloroisoproterenol"}
    ]}
  ]
}
